Measurements as given in ChEMBL document CHEMBL1201862, “PubChem BioAssay data set” (2004).
“And” between values parts separate entries of the source, which are not always exact repeats. Equal values may be shown once.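 All cell lines were grown in 96-well plates and treated with compound for 48 hours. Here, GI50 denotes the concentration required for 50% inhibition of growth.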 The source made the active and inactive calls. Rule as the data show it: active = GI50 up to about 1.1 µM and inactive = higher.

Experiments:
Assay in all cases: NCI anticancer screen, dose series, 48 h
MOLT-4 = test system: MOLT-4
OVCAR-5 = test system: OVCAR-5
MDA-N = test system: MDA-N
NCI-H226 = test system: NCI-H226
OVCAR-3 = test system: OVCAR-3
MCF7 = test system: MCF7
DU-145 = test system: DU-145
BT-549 = test system: BT-549
CAKI-1 = test system: CAKI-1
T47D = test system: T47D
UACC-257 = test system: UACC-257
CCRF-CEM = test system: CCRF-CEM
MDA-MB-231 = test system: MDA-MB-231
NCI-H460 = test system: NCI-H460
TK-10 = test system: TK-10
Malme-3M = test system: Malme-3M
SNB-75 = test system: SNB-75
SF-268 = test system: SF-268
786-0 = test system: 786-0
HOP-62 = test system: HOP-62

Measured: GI50

[O-][s+]1c2c(Cc3ccccc3)c(Cc3ccccc3)c1CCc1cccc(c1)CC2
inactive: MOLT-4 14 µM | OVCAR-5 15.3 µM | MDA-N 14.1 µM | NCI-H226 19.1 µM | OVCAR-3 11.1 µM | MCF7 11.1 µM | DU-145 15.8 µM | BT-549 13.8 µM | CAKI-1 11.9 µM | T47D 6.68 µM | UACC-257 14.1 µM | CCRF-CEM 19.6 µM | MDA-MB-231 15.9 µM | NCI-H460 13.4 µM | TK-10 19.1 µM | Malme-3M 17.1 µM | SNB-75 13 µM | SF-268 15.6 µM | 786-0 15.2 µM

COc1cccc(NC(=O)CC(=O)N2N=C(C)C(/N=N/c3ccc(S(=O)(=O)CCOS(=O)(=O)O)cc3)C2=O)c1 (stereo not given)
inactive: MOLT-4 2.26 µM | OVCAR-5 29.3 µM | MDA-N 3.69 µM | NCI-H226 4.66 µM | OVCAR-3 4.21 µM | MCF7 2.09 µM | DU-145 14.8 µM | BT-549 3.35 µM | CAKI-1 2.45 µM | T47D 11.4 µM | UACC-257 8.93 µM | CCRF-CEM 2.62 µM | MDA-MB-231 4.63 µM | NCI-H460 4.49 µM | TK-10 5.75 µM | Malme-3M 11.1 µM | SNB-75 3.27 µM | HOP-62 13 µM | SF-268 7.82 µM | 786-0 2.74 µM

O=C(Cc1ccc(Cl)cc1)Nc1ccc2oc(-c3ccccc3)nc2c1
inactive: MOLT-4 > 100 µM | OVCAR-5 > 100 µM | MDA-N > 100 µM | NCI-H226 27.6 µM | OVCAR-3 > 100 µM | MCF7 > 100 µM | DU-145 > 100 µM | BT-549 > 100 µM | CAKI-1 > 100 µM | T47D > 100 µM | UACC-257 > 100 µM | CCRF-CEM > 100 µM | MDA-MB-231 > 100 µM | NCI-H460 > 100 µM | TK-10 > 100 µM | Malme-3M > 100 µM | SNB-75 24.4 µM | HOP-62 35.6 µM | SF-268 74 µM | 786-0 57 µM

CCOC(=O)C(NCc1ccccc1)(NC(=O)c1ccccc1)C(F)(F)F (stereo not given)
inactive: MOLT-4 32.3 µM | OVCAR-5 > 100 µM | MDA-N > 100 µM | NCI-H226 > 100 µM | OVCAR-3 89.7 µM | MCF7 > 100 µM | DU-145 > 100 µM | BT-549 > 100 µM | CAKI-1 > 100 µM | T47D 38.5 µM | UACC-257 90.4 µM | CCRF-CEM 24.2 µM | MDA-MB-231 21.4 µM | TK-10 > 100 µM | Malme-3M > 100 µM | SNB-75 68.1 µM | HOP-62 > 100 µM | SF-268 > 100 µM | 786-0 > 100 µM

N=C(N)SC1c2ccccc2-c2cc([N+](=O)[O-])ccc21 (stereo not given)
inactive: MOLT-4 3.52 µM | OVCAR-5 9.95 µM | MDA-N 3 µM | NCI-H226 7.53 µM | OVCAR-3 2.69 µM | MCF7 3.24 µM | DU-145 3.88 µM | BT-549 6.05 µM | CAKI-1 6.1 µM | T47D 2.95 µM | UACC-257 7.45 µM | CCRF-CEM 3.3 µM | MDA-MB-231 6.5 µM | NCI-H460 3.93 µM | TK-10 8.24 µM | Malme-3M 5.19 µM | SNB-75 2.02 µM | HOP-62 6.56 µM | SF-268 4.48 µM | 786-0 4.67 µM

CC1CCC2(C(=O)O)CCC3(C)C(=CCC4C5(C)CCC(O)C(C)(C)C5CCC43C)C2C1C (stereo not given)
inactive: OVCAR-5 11.1 µM and 10.6 µM | MDA-N 14.6 µM | NCI-H226 19.7 µM and 11.1 µM | OVCAR-3 7.52 µM and 13.8 µM | MCF7 12.7 µM and 22 µM | DU-145 9.16 µM | BT-549 19 µM | CAKI-1 6 µM and 3.7 µM | T47D 14.2 µM | MDA-MB-231 12.5 µM | NCI-H460 12.4 µM | TK-10 19.7 µM | Malme-3M 15.1 µM and 14 µM | HOP-62 16.5 µM and 9.33 µM | 786-0 4.63 µM

O=C(NN1C(=O)CSC1c1ccco1)c1ccncc1 (stereo not given)
inactive: MOLT-4 > 100 µM | OVCAR-5 > 100 µM | MDA-N > 100 µM | NCI-H226 > 100 µM | OVCAR-3 > 100 µM | MCF7 > 100 µM | DU-145 > 100 µM | BT-549 > 100 µM | CAKI-1 > 100 µM | T47D > 100 µM | UACC-257 > 100 µM | CCRF-CEM > 100 µM | MDA-MB-231 > 100 µM | NCI-H460 > 100 µM | TK-10 > 100 µM | Malme-3M > 100 µM | HOP-62 > 100 µM | SF-268 > 100 µM | 786-0 > 100 µM

c1ccc(-c2nc3ccccc3n3nnnc23)cc1
inactive: MOLT-4 > 100 µM | OVCAR-5 > 100 µM | MDA-N > 100 µM | NCI-H226 > 100 µM | OVCAR-3 > 100 µM | MCF7 > 100 µM | DU-145 > 100 µM | BT-549 > 100 µM | T47D 20.2 µM | UACC-257 > 100 µM | CCRF-CEM > 100 µM | MDA-MB-231 > 100 µM | NCI-H460 > 100 µM | TK-10 > 100 µM | Malme-3M > 100 µM | HOP-62 63.5 µM | SF-268 75.7 µM | 786-0 57.1 µM
